Measurements taken from patent publication US7345070B2, “Peroxisome proliferator activated receptor agonists” (Eli Lilly and Company, priority 2000, dated 2008).

Columns and labels:
db/db mice = experiment: Evaluation of glucose levels in db/db mice; assay type: in vivo; conditions: Mus musculus, 168 h, 30 mg/kg oral gavage daily for 7 days, 100% = glucose not different from lean values, read-out: Glucose Normalisation
Experimental: Five week old male diabetic (db/db) mice [C57BlKs/j-m+/+ Lepr(db), Jackson Laboratory, Bar Harbor, Me.] or lean littermates (db+) were housed 6 per cage (10″×20″×8″ with aspen chip bedding) with food (Purina 5015) and water available at all times. After an acclimation period of 2 weeks, animals were individually identified by ear notches, weighed, and bled via the tail vein for determination of initial glucose levels. Blood was collected (100 μl) from unfasted animals by wrapping each mouse in a towel, cutting the tip of the tail with a scalpel, and milking blood from the tail into a heparinized capillary tube (Fisher) balanced on the edge of the bench. Sample was discharged into a heparinized microtainer with gel separator (VWR) and retained on ice. Plasma was obtained after centrifugation at 4° C. and glucose measured immediately. Remaining plasma was frozen until the completion of the experiment, when glucose and triglycerides were assayed in all samples. Animals were grouped based on initial glucose levels and body weights. Beginning the following morning, mice were dosed daily by oral gavage for 7 days using a 20 gauge, 1½″ curved disposable feeding needle. Treatments were test compounds (30 mg/kg), a positive control agent (30 mg/kg) or vehicle [1% carboxymethylcellulose (w/v)/0.25% Tween80 (w/v); 0.3 ml/mouse]. On day 7, mice were weighed and bled (tail vein) 3 hours after dosing. Twenty-four hours after the 7th dose (i.e., day 8), animals were bled again (tail vein). Samples obtained from conscious animals on days 0, 7 and 8 were assayed for glucose. After the 24 hour bleed, animals were weighed and dosed for the final time. Three hours after dosing on day 8, animals were anesthetized by inhalation of isoflurane and blood obtained via cardiac puncture (0.5-0.7 ml). Whole blood was transferred to serum separator tubes, chilled on ice and permitted to clot. Serum was obtained after centrifugation at 4° C. and frozen until analysis for compound levels. After sacrifice by cervical dislocation, the liver, heart and epididymal fat pads were excised and weighed.
The animals dosed with vehicle had average triglycerides values of 170-230 mg/dl, which were reduced by the positive PPARγ control (70-120 mg/dl with a mean reduction of 50%). Male db/db mice were hyperglycemic (average glucose of 680-730 mg/dl on the 7th day of treatment), while lean animals had average glucose levels between 190-230 mg/dl.
Glucose was measured […] using commercially purchased reagents (Sigma #315-500). According to the manufacturers, the procedures were modified from published work (McGowan, M. W., Artiss, J. D., Strandbergh, D. R. & Zak, B. Clin Chem, 20:470-5 (1974) and Keston, A. Specific colorimetric enzymatic analytical reagents for glucose. Abstract of papers 129th Meeting ACS, 31C (1956).); and depend on the release of a mole of hydrogen peroxide for each mole of analyte, coupled with a color reaction first described by Trinder (Trinder, P. Determination of glucose in blood using glucose oxidase with an alternative oxygen acceptor. Ann Clin Biochem, 6:24 (1969)). The absorbance of the dye produced is linearly related to the analyte in the sample. The assays were further modified in our laboratory for use in a 96 well format. Standards (Sigma #339-11, Sigma #16-11, and Sigma #CC0534 for glucose, triglycerides and total cholesterol, respectively), quality control plasma (Sigma # A2034), and samples (2 or 5 μl/well) were measured in duplicate using 200 μl of reagent. An additional aliquot of sample, pipetted to a third well and diluted in 200 μl water, provided a blank for each specimen. Plates were incubated at room temperature (18, 15, and 10 minutes for glucose, triglycerides and total cholesterol, respectively) on a plate shaker (DPC Micormix 5) and absorbance read at 500 nm (glucose and total cholesterol) or 540 nm (triglycerides) on a plate reader (Wallac Victor 1420). […]

HuapoAI transgenic mice = experiment: Evaluation of triglyceride and cholesterol level in HuapoAI transgenic mice; assay type: in vivo; conditions: human apoAI transgenic mice; for change in vivo at 30 mg/kg / inhibition in vivo at 30 mg/kg: Mus musculus, 168 h, 30 mg/kg oral gavage daily for 7 days; for change in vivo at 30 mg/kg: FPLC area under the curve, over mice receiving vehicle, read-out: % HDLc Increase; for inhibition in vivo at 30 mg/kg: serum 3 h after dosing, read-out: Reduction in Triglyceride Serum Level
Experimental: After an acclimation period of 2 weeks, animals were individually identified by ear notches, weighed, and assigned to groups based on body weight. Beginning the following morning, mice were dosed daily by oral gavage for 7 days using a 20 gauge, 1½″ curved disposable feeding needle (Popper & Sons). […] Prior to termination on day 7, mice were weighed and dosed. Three hours after dosing, animals were anesthetized by inhalation of isoflurane (2-4%; Abbott Laboratories, Chicago, Ill.) and blood obtained via cardiac puncture (0.7-1.0 ml). Whole blood was transferred to serum separator tubes (Vacutainer SST), chilled on ice, and permitted to clot. Serum was obtained after centrifugation at 4° C. and frozen until analysis for triglycerides, total cholesterol, compound levels, and serum lipoprotein profile by fast protein liquid chromatography (FPLC) coupled to an inline detection system. After sacrifice by cervical dislocation, the liver, heart and epididymal fat pads were excised and weighed.
The absorbance of the dye produced is linearly related to the analyte in the sample. The assays were further modified in our laboratory for use in a 96 well format. […] An additional aliquot of sample, pipetted to a third well and diluted in 200 μl water, provided a blank for each specimen. […] Sample absorbances were compared to a standard curve (100-800, 10-500, and 100-400 mg/dl for glucose, triglycerides and total cholesterol, respectively). […] All samples from an experiment were assayed at the same time to minimize inter-assay variability.
Serum lipoproteins were separated and cholesterol quantitated with an in-line detection system. Sample was applied to a Superose® 6 HR 10/30 size exclusion column (Amersham Pharmacia Biotech) and eluted with phosphate buffered saline-EDTA at 0.5 ml/min. […] The change in voltage corresponding to change in cholesterol concentration was plotted vs time and the area under the curve corresponding to the elution of VLDL, LDL and HDL was calculated using Perkin Elmer Turbochrome software.

huPPARα = experiment: Cotransfection assay in CV-1 cells, huPPARα; assay type: cell-based, human; conditions: GAL4 chimeric system, relative to PPARα agonist reference molecule
Experimental: DNA-dependent binding (ABCD binding) was carried out using SPA technology with PPAR receptors. Tritium-labeled PPARα and PPARγ agonists were used as radioligands for generating displacement curves and IC50 values with compounds of the invention. Cotransfection assays were carried out in CV-1 cells. The reporter plasmid contained an acylCoA oxidase (AOX) PPRE and TK promoter upstream of the luciferase reporter cDNA. Appropriate PPARs and RXRα were constitutively expressed using plasmids containing the CMV promoter. […] In order to eliminate such interference, a GAL4 chimeric system was used in which the DNA binding domain of the transfected PPAR was replaced by that of GAL4, and the GAL4 response element was utilized in place of the AOX PPRE. Cotransfection efficacy was determined relative to PPARα agonist and PPARγ agonist reference molecules. Efficacies were determined by computer fit to a concentration-response curve, or in some cases at a single high concentration of agonist (10 μM). For binding or cotransfection studies with receptors other than PPARs, similar assays were carried out using appropriate ligands, receptors, reporter constructs, etc., for that particular receptor.
These studies were carried out to evaluate the ability of compounds of the invention to bind to and/or activate various nuclear transcription factors, particularly huPPARα (“hu” indicates “human”) and huPPARγ. These studies provide in vitro data concerning efficacy and selectivity of compounds of the invention. Furthermore, binding and cotransfection data for compounds of the invention were compared with corresponding data for marketed compounds that act on either huPPARα or huPPARγ.

[1] = 100 mg/kg oral daily 7 days, vs vehicle

Structure (SMILES)	inhibition in vivo at 30 mg/kg (db/db mice) [%]	change in vivo at 30 mg/kg (HuapoAI transgenic mice) [%]	inhibition in vivo at 30 mg/kg (HuapoAI transgenic mice) [%]	other results
Cc1oc(-c2cccs2)nc1CCOc1ccc(CC(C)(Oc2ccccc2)C(=O)O)cc1 (racemic) [Example 4, rac-2-Methyl-3-{4-[2-(5-methyl-2-thiophen-2-yl-oxazol-4-yl)-ethoxy]-phenyl}-2-phenoxypropionic acid]	74	24	58.3	–
Cc1oc(-c2ccccc2)nc1CCOc1ccc(C[C@](C)(Oc2ccccc2)C(=O)O)cc1 [Example 3, (S)-3-{4-[2-(2-Phenyl-5-methyl-oxazol-4-yl)-ethoxy]-phenyl}-2-methyl-2-phenoxy-propionic acid]	85	67	–	–
CC(C)OC(=O)C(C)(C)Oc1ccc(C(=O)c2ccc(Cl)cc2)cc1 [fenofibrate, reference compound]	–	–	–	HDLc peak area (HuapoAI transgenic mice; 100 mg/kg oral daily 7 days, FPLC of pooled sera, vehicle 47-62 v-sec): 68-96 v-sec; mean percent increase of HDLc (HuapoAI transgenic mice; 100 mg/kg oral daily 7 days, FPLC, vs vehicle): 48%; mean elevation of total serum cholesterol (HuapoAI transgenic mice; [1]): 41%; mean reduction of triglycerides (HuapoAI transgenic mice; [1]): 37%; average triglycerides values (HuapoAI transgenic mice; 100 mg/kg oral daily 7 days, vehicle 60-80 mg/dl): 33 to 58 mg/dL; average total serum cholesterol values (HuapoAI transgenic mice; 100 mg/kg oral daily 7 days, vehicle 140-180 mg/dl): 190 to 280 mg/dL
Cc1oc(C2CCCCC2)nc1CCOc1ccc(CC(C)(Oc2ccccc2)C(=O)O)cc1 (stereo not drawn) [Example 7, 2-Methyl-3-(4-{2-[5-methyl-2-cyclohexyl-oxazol-4-yl]-ethoxy}-phenyl)-2-phenoxypropionic acid]	86	39	42.1	–
Cc1oc(-c2ccccc2)nc1CCOc1ccc(CC(C)(Oc2ccccc2)C(=O)O)cc1 (racemic) [Example 1, rac-3-{4-[2-(2-Phenyl-5-methyl-oxazol-4-yl)-ethoxy]-phenyl}-2-methyl-2-phenoxy-propionic acid]	95	83	41.3	–
Cc1oc(-c2cccs2)nc1CCOc1ccc(C[C@](C)(Oc2ccccc2)C(=O)O)cc1 [Example 6, (S)-2-Methyl-3-{4-[2-(5-methyl-2-thiophen-2-yl-oxazol-4-yl)-ethoxy]-phenyl}-2-phenoxypropionic acid]	86	85	38.5	–
Cc1oc(-c2cccs2)nc1CCOc1ccc(C[C@@](C)(Oc2ccccc2)C(=O)O)cc1 [Example 5, (R)-2-Methyl-3-{4-[2-(5-methyl-2-thiophen-2-yl-oxazol-4-yl)-ethoxy]-phenyl}-2-phenoxypropionic acid]	80	30	19.7	–
Cc1oc(-c2ccccc2)nc1CCOc1ccc(C[C@@](C)(Oc2ccccc2)C(=O)O)cc1 [Example 2, (R)-3-{4-[2-(2-Phenyl-5-methyl-oxazol-4-yl)-ethoxy]-phenyl}-2-methyl-2-phenoxy-propionic acid]	9	25	-12.9	–
Cc1c(C)c2c(c(C)c1O)CCC(C)(COc1ccc(CC3SC(=O)NC3=O)cc1)O2 (stereo not drawn) [Troglitazone, reference compound]	–	–	–	huPPARα CTF Efficacy (huPPARα): 0%
